What was measured:
[1] = test system: C57BL6 mice treated with Triton 1339 (Tyloxapol); experiment: Hypocholesterolemic effect in induced hyperlipidemia model (Triton 1339); assay type: in vivo; conditions: 50 mg/kg i.p.
Protocol: In order to conduct the experiment on the fasting animals, blood was extracted by ocular puncture. The plasma was obtained from said blood, in which plasma total cholesterol levels and levels of its fractions were determined prior to administration of the substances under study. […] After thirty minutes, the animals were intraperitoneally inoculated with 50 mg/kg of each of the test compounds. Seven animals were treated with the vehicle alone and were considered the control group. […] Finally, a third group of seven mice received 50 mg/Kg of NST0037. Twenty-four hours after the treatments, blood was again extracted from the fasting animals and the plasma was obtained from said blood.

[2] = in vitro; conditions: PAMPA, pH 7.4
[3] = test system: ApoB100 mice; experiment: Hypocholesterolemic effect, oral three months, endogenous hyperlipidemia model; assay type: in vivo; conditions: 50 mg/kg oral, 3 months
Protocol: (§1) All the animals included for the experimental process were 6-month old female mice. The experiments were conducted strictly following the Guidance on the Operation of Animals (Scientific Procedures, Act. 1986). The animals had their respective quarantine period and were treated with maximum precaution to minimize possible contaminations for inoculations and handling.
After a conditioning to the diet, 50 mg/kg of NST0021 or NST0037 were orally administered to the mice for 3 months, three times a week, using in both cases 0.25% carboxy methylcellulose in physiological saline as a vehicle. The control group received this same vehicle. Before starting the treatments and at one, two and three months of starting them, retro-orbital blood extractions after fasting for 16 hours were carried out. The plasma was obtained from said blood, in which the total cholesterol (TC), free cholesterol (FC), cholesterol (EC), HDL-c, LDL-c, VLDL-c levels were evaluated by enzymatic and spectrophotometric techniques.

[4] = test system: FVB/NHan mice inoculated with kainate (KA); experiment: Neuropathological signs in hippocampus after kainate (MAP2, HNE, T.U.N.E.L., GFAP); assay type: in vivo; conditions: for neuritic dystrophy (MAP2 labeling) in hippocampus: 50 mg/kg i.p., 7 days
Protocol: as §1, with “were 12-week” for “were 6-month”, “old males of the FVB/NHan strain.” for “old female mice.”, “contaminations during” for “contaminations for”
Twenty-five animals were used in this assay and the treatments were all conducted by intraperitoneal (i.p.) route with a volume of 100 μl, according to the following regimens: • i) PBS+PBS+PBS regimen: 4 animals were initially treated with PBS with a daily dose for 2 days, on the second day the animals were inoculated with a new dose of PBS and for the next 7 days with a daily dose of PBS. • ii) NST0037+KA+NST0037 regimen: 7 animals were initially treated with a daily dose for 2 days with NST0037 at 50 mg/kg, on the second day the animals were inoculated with a dose of kainate at 25 mg/Kg and for the next 7 days with a daily dose of NST0037 at 50 mg/kg. • iii) PBS+KA+PBS regimen: 7 animals were initially treated with PBS with a daily dose for 2 days, on the second day the animals were inoculated with a dose of kainate at 25 mg/Kg and for the next 7 days with a daily dose of PBS. • iv) PBS+KA+NST0037 regimen: 7 animals were initially treated with PBS with a daily dose for 2 days, on the second day the animals were inoculated with a dose of kainate at 25 mg/Kg and for the next 7 days with a daily dose of NST0037 at 50 mg/kg.
(§2) Once the treatment time of 7 days ended, the animals were sacrificed and the brains were dissected. The brain samples were processed and included in paraffin. For the analysis of neuritic dystrophy in the hippocampus, bright field immunochemistry against microtubule associated protein type 2 (MAP2) was performed in 5 μm thick coronal sections.
as §2, with “oxidative damage due to lipid peroxidation” for “neuritic dystrophy”, “4-hydroxynonenal (HNE)” for “microtubule associated protein type 2 (MAP2)”
Once the treatment time of 7 days ended, the animals were sacrificed and the brains were dissected. The brain samples were processed and included in paraffin. For the analysis of the presence of neurons in apoptosis in the hippocampus, the T.U.N.E.L. (TdT-mediated dUTP nick end labeling) fluorescence technique was performed in 5 μm thick coronal sections.
Once the treatment time of 7 days ended, the animals were sacrificed and the brains were dissected. The brain samples were processed and included in paraffin. The analysis of reactive astrogliosis was performed by means of bright field immunochemistry against Glial fibrillary acidic protein (GFAP) in 5 μm thick coronal sections, which protein is present in astrocytes.

CCC(CC)C(=O)O[C@H]1C[C@@H](C)C=C2C=C[C@H](C)[C@H](CC[C@@H]3C[C@@H](O)CC(=O)O3)[C@H]21 [NST0037, (1S,2S,6R,8S,8aR)-1,2,6,7,8,8a-hexahydro-3,7-dimethyl-8-[2-[(2R,4R)-tetrahydro-4-hydroxy-6-oxo-2H-pyran-2-yl]ethyl]-1-naphthalenyl-2-ethyl-butyrate]
HDL-c levels ([1]; 24 hours after Triton 1339): not being changed
LDL-c levels ([1]; 24 hours after Triton 1339): reduction being statistically significant
VLDL-c levels ([1]; 24 hours after Triton 1339): Only simvastatin reduced
esterified cholesterol (EC) levels ([1]; 24 hours after Triton 1339): reduced
free cholesterol (FC) levels ([1]; 24 hours after Triton 1339): reduced the levels of this fraction in a similar manner
total cholesterol increase ([1]; 24 hours after Triton 1339 500 mg/kg): hypocholesterolemic effect, being statistically significant
Papp at 18 h, 100 μM [2]: 3.1 ×10⁻⁶ cm/s
FC and EC levels [3]: significant reduction of both FC and EC
HDL-c levels [3]: increase the HDL-c levels
LDL-c levels vs simvastatin [3]: reduced to a greater extent
cholesterol fractions ([3]; three times a week, female apoB100 mice): reduced the different cholesterol fractions
apoptosis (T.U.N.E.L.) in hippocampus ([4]; NST0037+KA+NST0037 regimen): did not show neurons positive for T.U.N.E.L.
oxidative damage (HNE labeling) in hippocampus ([4]; NST0037+KA+NST0037 regimen): without HNE-labeled neurons
reactive astrogliosis (GFAP) in hippocampus ([4]; NST0037+KA+NST0037 regimen): astrocyte pattern very similar to that of the controls
neuritic dystrophy (MAP2 labeling) in hippocampus ([4]; NST0037+KA+NST0037 regimen): without evidence of neuritic dystrophy
apoptosis (T.U.N.E.L.) in hippocampus ([4]; PBS+KA+NST0037 regimen): reduces the number of neurons in apoptosis to a few isolated cells
oxidative damage (HNE labeling) in hippocampus ([4]; PBS+KA+NST0037 regimen): reduces the number of HNE-labeled neurons
reactive astrogliosis (GFAP) in hippocampus ([4]; PBS+KA+NST0037 regimen): reduces the number of astrocytes and the intensity of the GFAP labeling
neuritic dystrophy (MAP2 labeling) in hippocampus ([4]; PBS+KA+NST0037 regimen): clearly reduces the loss of MAP2 labeling

Reference: patent US20140309295A1, “ANTIEPILEPTIC, HYPOCHOLESTEROLEMIC AND NEUROPROTECTIVE COMPOUND” (NEURON BIOPHARMA, S.A., priority 2009, published 2014)
